From PubChem BioAssay AID1963849 (Molecular Pharmacology Branch, DTP, NCI, 2024)
Several values for one entry are separate records, joined by “and”; a condition that tells them apart may be missing. Equal entries are not always repeated.

Tested on: 299254-011-R-J1-PDC complex spheroid viability
Experiment: Anticancer human tumor 299254-011-R-J1-PDC patient-derived melanoma cell line growth inhibition [POLQ]
Settings: for viability, T/C: stronger effect = lower value; for IC50: curve of compound
Protocol: Multicellular complex tumor spheroid response to Polymerase (POL) inhibitors (novobiocin, ART-558, RP6685) in combination with a variety of drugs and investigational agents in selected tumor cell lines
The POL inhibitors (novobiocin, ART-558, and RP6685) were evaluated both individually and in combination with standard of care and investigational anticancer small molecules within a complex spheroid model of solid tumors. . Complex spheroids include a stromal component modeled by human endothelial cells (HUVEC) and fibroblasts modeled by human mesenchymal stem cells (MSCs). The concentration ranges selected for each drug and investigational agent were based upon clinically achievable concentrations if the clinical Cmax of the agent was known.
Compounds. The drugs and investigational agents: novobiocin (NSC847541), ART-558 (NSC835418), RP-6685 (NSC848927), peposertib (NSC802822), ceralasertib (NSC780249), elimusertib (NSC800525), camonsertib (NSC841442), AZD-1390 (NSC803789), olaparib (NSC753686), talazoparib (NSC767125), rucaparib (NSC756644), sotorasib (NSC818433), MRTX-1133 (NSC836407), SN-38 (NSC673596), topotecan (NSC609699), epotoside (NSC141540), doxorubicin (NSC123127), gemcitabine (NSC613327), 5-fluorouracil (NSC19893), paclitaxel (NSC125973), vemurafenib (NSC761431), MSA-2 (NSC828583), SN-011 (NSC837082), adavosertib (NSC754352), prexasertib (NSC758257), carboplatin (NSC241240) and oxaliplatin (NSC266046), were obtained from the National Cancer Institute (NCI) Developmental Therapeutics Program Chemical Repository (21). The FDA-approved anticancer drug set is available from the Developmental Therapeutics Program at https://dtp.cancer.gov/organization/dscb/obtaining/. […] The stock solutions were prepared in dimethyl sulfoxide (DMSO, Sigma-Aldrich, St. Louis, MO, cat. D2650), except for the platinum compounds which were prepared in saline (Quality Biological, Gaithersburg, MD, cat. 114-055-101), at 800-fold the tested concentration and stored at -70 degrees C prior to their use. All drugs and investigational agents were tested over a range starting from a high concentration at or near the clinical Cmax and decreasing in half-log increments. If the clinical Cmax for an agent had not been determined, the highest concentration tested was 10 microM, except for SN-38, which was tested at a high concentration of 1 microM.
Cell Culture. All cells were maintained in an incubator at 37 degrees C and 5% CO2 with 95% humidity. The PDC lines were cultured according to standard operating procedures established by the NCI PDMR (https://pdmr.cancer.gov). Table 3 of the manuscript, lists the cell lines along with the number of the three cell types plated to form the mct-spheroids and media for tumor cell growth. After thawing, all PDC lines, except 997537-175-T-J1-PDC and 415267-285-R-J2-PDC, were cultured in Matrigel-coated flasks prepared with a working solution of 1X Ham's F-12 nutrient mix, without supplementation (Thermo Fisher Scientific, cat. 11765054), 100 U/mL penicillin-streptomycin (Thermo Fisher Scientific, cat. 15140122), and 2.5% Matrigel (Corning Inc., Corning, NY, cat. 354248) for the first three passages. The two PDC lines 997537-175-T-J1-PDC and 415267-285-R-J2-PDC were cultured on uncoated flasks. The 857933-349-R-J2-PDC line was cultured in 6C/Colon 1B media containing advanced DMEM/F-12 (Thermo Fisher Scientific, cat. 12634028), 10 mM HEPES (Thermo Fisher Scientific, cat. 15630080), 1X GlutaMAX supplement (Thermo Fisher Scientific, cat. 35050061), 0.1 mg/mL primocin (InvivoGen, San Diego, CA, cat. ant-pm-2), 10% defined fetal bovine serum, heat inactivated (HyClone Laboratories Inc., Logan, UT, cat. SH30070.03HI), 50% L-WRN conditioned media (ATCC, cat. CRL-3276), 1.25 mM N-Acetyl-L-cysteine (Sigma-Aldrich, cat. A9165), 10 mM nicotinamide (Sigma-Aldrich, cat. N0636), 1X B-27 supplement (Thermo Fisher Scientific, cat. 17504044), 1X N-2 supplement (Thermo Fisher Scientific, cat. […]
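Further: spheroids exposed to drugs for one week before measurement.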
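Wherever viability, T/C is given: percent viability relative to DMSO vehicle control taken as 100%.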

SMILES | viability, T/C (compound 0.00949 µM) | viability, T/C (compound 0.03 µM) | viability, T/C (compound 0.0949 µM) | viability, T/C (compound 0.3 µM) | viability, T/C (compound 0.949 µM) | viability, T/C (compound 3 µM) | IC50 | viability, T/C (compound 0.000316 µM) | viability, T/C (compound 0.001 µM) | viability, T/C (compound 0.00316 µM) | viability, T/C (compound 0.01 µM) | viability, T/C (compound 0.0316 µM) | viability, T/C (compound 0.1 µM) | viability, T/C (compound 0.316 µM) | viability, T/C (compound 1 µM) | viability, T/C (compound 3.16 µM) | viability, T/C (compound 10 µM)
CC(=O)O[C@H]1C(=O)[C@@]2(C)[C@H]([C@H](OC(=O)c3ccccc3)[C@]3(O)C[C@H](OC(=O)[C@H](O)[C@@H](NC(=O)c4ccccc4)c4ccccc4)C(C)=C1C3(C)C)[C@]1(OC(C)=O)CO[C@@H]1C[C@@H]2O | 84.8% and 82.2% and 94.2% | 76.5% and 84.1% and 70.9% | 49.1% and 47.2% and 41.7% | 31.8% and 42.1% and 26.9% | 22.3% and 28.3% and 21.8% | 28.1% and 22.8% and 15.4% | 93.2 nM and 125 nM and 70.4 nM |  |  |  |  |  |  |  |  |  | 
CC[C@@]1(O)C(=O)OCc2c1cc1n(c2=O)Cc2cc3c(CN(C)C)c(O)ccc3nc2-1 |  |  |  |  |  |  | > 100 nM | 98.9% and 101% and 112% | 94.2% and 113% and 101% | 106% and 89.5% and 111% | 103% (2×) and 114% | 107% and 108% and 94.4% | 78.4% and 81.1% and 72.7% |  |  |  | 
C#Cc1c(F)ccc2cc(O)cc(-c3ncc4c(N5CC6CCC(C5)N6)nc(OCC56CCCN5CC(F)C6)nc4c3F)c12 (stereo not drawn) |  |  |  |  |  |  | > 10000 nM |  |  |  |  | 90.8% and 94.2% and 98% | 109% and 101% and 94.8% | 113% and 107% and 110% | 117% and 116% and 112% | 102% and 117% and 93.7% | 84.7% and 82.2% and 84.4%
CCc1cc2c(N3CCc4c(cc(Cn5ccnc5)cc4-c4cn(C)nc4C(F)(F)F)C3=O)ccnc2c(OC)n1 |  |  |  |  |  |  | > 10000 nM |  |  |  |  | 97% and 108% and 110% | 105% and 116% and 102% | 96.3% and 113% and 109% | 93.1% and 100% and 93.5% | 98% and 90.8% and 98.3% | 84.2% and 82% and 82.5%
CCc1cc2c(N3CCc4c(cc(Cn5ccnc5)cc4-c4cn(C)nc4C(F)(F)F)C3=O)cc(C)nc2c(OC)n1 |  |  |  |  |  |  | > 10000 nM |  |  |  |  | 131% and 104% and 92.7% | 90.2% and 96.5% and 106% | 118% and 92.2% and 99.7% | 99.2% and 94.1% and 99.4% | 103% and 86.5% and 90.4% | 59.6% and 62.7% and 67.7%
CCc1c2c(nc3ccc(O)cc13)-c1cc3c(c(=O)n1C2)COC(=O)[C@]3(O)CC |  |  |  |  |  |  | > 1000 nM |  |  | 94.6% and 92.7% and 99.2% | 89.3% and 93.2% and 77.9% | 75.9% and 72.8% and 82% | 67.9% and 81.2% and 60.7% | 69.4% and 75.8% and 59.4% | 51.7% and 59.2% and 59.4% |  | 
COc1cc(C2c3cc4c(cc3C(OC3OC5COC(C)OC5C(O)C3O)C3COC(=O)C23)OCO4)cc(OC)c1O (stereo not drawn) |  |  |  |  |  |  | > 10000 nM |  |  |  |  | 101% and 98.9% and 106% | 103% and 106% and 84.8% | 93.5% and 92.1% and 111% | 87.4% and 91.4% and 94.4% | 67.7% and 73.7% and 72.5% | 53.7% and 56.4% and 62.8%
Cn1ncnc1[C@H]1c2n[nH]c(=O)c3cc(F)cc(c23)N[C@@H]1c1ccc(F)cc1 |  |  |  |  |  |  | > 100 nM | 107% and 92.2% and 97.5% | 108% and 87.9% and 99% | 110% and 111% and 116% | 124% and 107% and 98.2% | 128% and 92.6% and 95.2% | 101% (2×) and 99.2% |  |  |  | 
COc1cccc(OCCCN)c1-c1cc(Nc2cnc(C#N)cn2)n[nH]1 |  |  |  |  |  |  | 78.9 nM and 135 nM and 268 nM |  |  | 98.2% and 103% (2×) | 92.8% and 112% and 96% | 60.5% and 75.7% and 77.2% | 52.1% and 57.2% and 56.9% | 37.6% and 41.3% and 50.1% | 38.9% and 37.3% and 45.4% |  | 
